According to patent publication US8618074B2, “GPCR enhanced neuroprotection to treat brain injury” (Board of Regents of the University of Texas System, priority 2007, dated 2013):

What was measured:
Assay type in all cases: cell-based, mouse
astrocytes [1] = assay: Mitochondrial membrane potential ΔΨ estimated as log(Fmito/Fcyto) with TMRE; conditions: treating astrocytes for 10 minutes
Experimental: Mitochondrial membrane potentials (ΔΨs) was measured as previously described using the potential sensitive dye tetra-methyl rhodamine ethyl ester (TMRE, Molecular Probes, #T-669) (Lin and Lechleiter, 2002). Images were acquired with a 60× oil 1.4 NA objective on a Nikon PCM2000 confocal microscope custom adapted for two-photon imaging. A Ti-sapphire Coherent Mira 900 Laser pumped with a 5W Verdi laser (Coherent Inc., Santa Clara, Calif.) was used to excite TMRE at 800 nm A neutral-density filter wheel was used to attenuate the laser intensity so that no detectable photobleaching of TMRE was observed.
We confirmed this by directly measuring the effect of ATP, ATP plus XeC and IP3-BM treatments on ΔΨ. Cultured cells were labeled with TMRE (200 nM) and imaged with a two-photon microscope as described above. ΔΨ was estimated as the log (Fmito/Fcyto) where Fmito is the peak fluorescent intensity observed in single mitochondria (Farkas et al., 1989; Lin et al., 2005). The mean values of individual mitochondria from a single cell were used for the mitochondrial potential estimate. Fcyto represents the lowest value of TMRE fluorescence observed within the boundaries of the same cell. […] FIG. 5E depicts a histogram plot showing average mitochondrial membrane potentials before and after treatment. The mean resting ΔΨs for untreated (Buffer), ATP-treated, ATP plus XeC-treated and IP3-BM-treated were 1.84+0.01 (n=78 mitochondria, pooled from 2 experiments), 1.84+0.01 (n=85 mitochondria), 1.85+0.01 (n=80 mitochondria) and 1.86+0.01 (n=48 mitochondria), respectively. Astrocyte cultures were then exposed to their respective treatments and the same fields of mitochondria were imaged 10 minutes later.

astrocytes [2] = assay: Confocal Ca2+ imaging of astrocytes on bath application of ATP; conditions: bath application of ATP 1 μM; cultured young and old astrocytes
From the text: The next physiological response that we investigated during aging was intracellular Ca^2+ signaling. Metabotropic purinergic receptors (P2Y-Rs) are well known to generate robust Ca^2+ signals in astrocytes. Our initial bias was that we would observe reduced Ca^2+ responses in astrocytes cultured from old mice. […] Ca^2+ measurements were made using standard confocal imaging of Ca^2+ sensitive fluorescent dyes, which loaded equally well for both young and old astrocytes. […] The first surprise finding was that a higher percentage of old astrocytes (more than half) responded to exogenously applied ATP. […] However, we can account for these observed enhancements to cytosolic Ca^2+ signaling in old astrocytes by a reduced ability of mitochondria to sequester Ca^2+ during aging. […] The ability of mitochondria to sequester Ca^2+, and thereby modulate IP3-induced Ca^2+ release, is critically dependent on the mitochondrial membrane potential (ΔΨ) and close proximity of mitochondria to the Ca^2+ release site. This proximity allows mitochondria to sense greater Ca^2+ concentrations than those present in the bulk cytosolic compartment. Consequently, a reduction in ΔΨ with age will reduce mitochondrial Ca^2+ buffering, thereby leading to increased cytosolic Ca^2+ release and faster Ca^2+ dynamics.

astrocytes [3] = assay: Astrocyte survival under t-buOOH oxidative stress in the absence of neurons
Experimental: To determine whether P2Y-R enhanced mitochondrial metabolism in astrocytes affected neuronal resistance to oxidative stress, we prepared co-cultures of neurons and astrocytes using corning transwell-clear permeable supports, which physically separates the two cell-types by ˜1 mm (# 07-200-170, Fisher scientific). Primary cultures of astrocytes were directly prepared in transwell supports until they were ˜70% confluent. Mouse cortical neurons were then cultured onto glass bottom mattek plates and maintained in B-27/Neurobasal Medium to control glia contamination to less than 0.5% (Invitrogen). After four days, co-cultures were treated with t-buOOH (100 μM) for 4 hours with and without pre-stimulation of ATP (2 μM, 10 minutes). Cells were then stained with the DNA intercalating dye Hoechst 33342 (10 μg/ml, Molecular Probes, #H-3570) and calcein AM (2 μM, Molecular Probes, #C3100). […] We then tested the neuroprotective affects of isoform specific purinergic ligands 2-MeSADP(P2Y1-R) and UTP(P2Y2-R). FIG. 6A depicts histogram plots of the percentage of neurons alive when cocultured with young or old astrocytes. FIG. 6B depicts histogram plots of the percentage of neurons alive pretreated with either 2-MeSADP (2 μM) or UTP (50 μM) for 10 min. A ten-minute pre-treatment of astrocytes with either 2-MeSADP (2 μM), or UTP (50 μM) was equally protective against oxidative stress induced cell death. The % neurons alive after 4.5 hours of t-buOOH treatment was 51±4% (n=1664 neurons, pooled from 4 experiments) for untreated controls, 70±2% (n=2541 neurons, pooled from 4 experiments) for 2-MeSADP and 71±3% (n=1189 neurons, pooled from 4 experiments) for UTP treated co-cultures. […] The % astrocytes alive after 4.5 hours of t-buOOH treatment, in the absence of neurons, was 60±4% (n=294 cells) for control, 77±4% (n=294) for 2-MeSADP and 79±3% (n=333) for UTP treated astrocytes.
It should be noted that stimulation of neuroprotective response in astrocytes is not restricted to signaling through P2Y receptors. For example we have shown that administration of the membrane permeable IP3 analog, IP3BM, is capable of protecting astrocytes from oxidative damage. Thus, it appears possible that any stimulus capable of evoking IP3-mediated calcium release in astrocytes is equally suitable for application in the present treatment methods. To test this possibility, astrocyte cultures subjected to oxidative stress were treated with either 2-MeSADP, or the metabotropic glutamate receptor agonist (1 S, 3 R)-1-aminocyclopentane-1,3-dicarboxylic acid (ACPD), or were left untreated.
To directly examine the role of IP3 gated Ca^2+ release in P2Y-R enhanced astrocyte protection, we used a membrane permeant butyryloxymethyl ester of IP3 (IP3-BM). Cultures of astrocytes were exposed to IP3-BM and Ca^2+ levels were assessed using 2-photon imaging of Fura 2. Ca^2+ increases in response to IP3-BM application were easily detected, but they occurred over a much slower time course than those initiated by ATP treatment. This was not unexpected because of the slow process of IP3-BM movement across the lipid bilayer as well as the time needed to cleave the ester and accumulate IP3 in the cell. Because of the slower time course, we pretreated astrocytes for 20 minutes prior to exposing them to the oxidant stress t-BuOOH. […] The protective effect of IP3-BM treatment was blocked by the IP3R inhibitor, XeC. […]

SMILES	ΔΨ (log Fmito/Fcyto) after treatment (astrocytes [1])	Ca2+ oscillations (astrocytes [2])	% astrocytes alive (astrocytes [3]; absence of neurons, 4.5 hours of t-buOOH, 2-MeSADP or UTP) [%]	astrocyte resistance to oxidative stress (astrocytes [3]; astrocyte cultures subjected to oxidative stress, versus untreated)
Nc1ncnc2c1ncn2[C@@H]1O[C@H](COP(=O)(O)OP(=O)(O)OP(=O)(O)O)[C@@H](O)[C@H]1O [ATP]	1.98±0.01	stimulated Ca^2+ oscillations	–	–
CSc1nc(N)c2ncn([C@@H]3O[C@H](COP(=O)(O)OP(=O)(O)O)[C@@H](O)[C@H]3O)c2n1 [2-MeSADP]	–	–	77±4	enhanced
